Tests used:
[1] = test system: Guinea Pig Rhinitis Model; assay: Guinea pig rhinitis model (OVA, respiratory resistance); format: in vivo, Harley guinea pig; settings: 10 mg intranasally before induction by the antigen; 10 minutes to 8 hours after induction; Fig. 3
Description: Cyclophosphamide (SIGMA) was dissolved in physiological saline to a concentration of 25 mg/ml, and the solution was intraperitoneally administered to each Harley guinea pig (male, 2 weeks old, JAPAN SLC) at a dose of 50 mg/kg on DAY-0. Equivolume of OVA (2.0 mg/ml) dissolved in physiological saline and 12 ml of aqueous 9% AlK(SO4)2 solution were mixed, and then 10% aqueous Na2CO3 solution was added thereto to adjust the pH to 6.5, thereby obtaining Al(OH)3 gel (OVA 500 µg/ml) on which OVA was adsorbed. The obtained product was centrifuged and the precipitated gel was washed with PBS(-), followed by addition of Bordetella pertussis cell suspension (WAKO PURE CHEMICALS). The OVA concentration was adjusted to 100 µg/ml, and 1 ml (100 µg) of the resulting product was intraperitoneally administered to each guinea pig. On DAY-22, each mice was made to inhale 1% OVA dissolved in physiological saline for 10 minutes. […] The increase in the respiratory resistance from 10 minutes after the induction to 8 hours after the induction was measured by a respiratory resistance-measuring apparatus (body plethysmograph method; SHIZUME MEDICAL), and the result was expressed in terms of the ratio of the measured resistance based on the respiratory resistance measured before the induction by the antigen. […]

[2] = target: VLA-4-IgG chimeric protein (Homo sapiens, UniProt P05556+P13612); assay: Inhibition of binding between CS-1 peptide and VLA-4-IgG chimeric protein; settings: binding of VLA-4-IgG chimeric protein to immobilized CS-1 peptide; compound preincubated 20 minutes; read-out: Inhibition Activity(IC50 : nM)
Sequence of VLA-4-IgG chimeric protein (P13612 with tags, fused parts or gaps limits assumed): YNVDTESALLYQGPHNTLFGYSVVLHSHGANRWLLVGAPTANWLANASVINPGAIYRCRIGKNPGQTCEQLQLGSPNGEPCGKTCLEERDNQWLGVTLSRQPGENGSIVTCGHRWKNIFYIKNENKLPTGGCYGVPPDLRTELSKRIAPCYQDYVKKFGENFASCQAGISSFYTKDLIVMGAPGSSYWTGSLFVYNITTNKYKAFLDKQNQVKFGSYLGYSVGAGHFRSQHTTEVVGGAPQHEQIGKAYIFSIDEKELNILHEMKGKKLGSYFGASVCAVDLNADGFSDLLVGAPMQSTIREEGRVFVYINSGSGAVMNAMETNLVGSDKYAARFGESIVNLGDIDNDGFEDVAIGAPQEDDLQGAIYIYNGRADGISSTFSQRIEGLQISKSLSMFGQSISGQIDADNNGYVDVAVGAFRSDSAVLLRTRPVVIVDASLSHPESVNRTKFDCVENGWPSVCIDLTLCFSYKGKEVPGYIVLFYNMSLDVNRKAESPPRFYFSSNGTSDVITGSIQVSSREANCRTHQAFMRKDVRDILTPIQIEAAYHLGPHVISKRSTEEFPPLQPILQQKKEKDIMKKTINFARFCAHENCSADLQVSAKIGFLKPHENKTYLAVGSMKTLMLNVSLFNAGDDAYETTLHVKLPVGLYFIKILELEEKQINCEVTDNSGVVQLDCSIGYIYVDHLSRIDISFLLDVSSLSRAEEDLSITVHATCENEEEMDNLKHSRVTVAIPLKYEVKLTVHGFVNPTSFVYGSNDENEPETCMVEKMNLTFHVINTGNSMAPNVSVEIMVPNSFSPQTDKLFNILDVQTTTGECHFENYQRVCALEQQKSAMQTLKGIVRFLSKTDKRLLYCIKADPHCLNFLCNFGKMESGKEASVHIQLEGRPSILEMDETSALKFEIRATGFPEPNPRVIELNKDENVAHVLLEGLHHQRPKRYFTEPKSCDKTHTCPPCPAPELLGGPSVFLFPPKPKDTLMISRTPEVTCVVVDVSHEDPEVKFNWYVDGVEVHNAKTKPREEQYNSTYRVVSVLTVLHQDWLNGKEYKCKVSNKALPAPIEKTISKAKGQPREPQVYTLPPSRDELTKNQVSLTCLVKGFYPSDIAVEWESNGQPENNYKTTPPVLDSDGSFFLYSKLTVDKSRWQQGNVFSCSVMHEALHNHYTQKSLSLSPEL
Sequence of VLA-4-IgG chimeric protein (P05556 with tags, fused parts or gaps limits assumed): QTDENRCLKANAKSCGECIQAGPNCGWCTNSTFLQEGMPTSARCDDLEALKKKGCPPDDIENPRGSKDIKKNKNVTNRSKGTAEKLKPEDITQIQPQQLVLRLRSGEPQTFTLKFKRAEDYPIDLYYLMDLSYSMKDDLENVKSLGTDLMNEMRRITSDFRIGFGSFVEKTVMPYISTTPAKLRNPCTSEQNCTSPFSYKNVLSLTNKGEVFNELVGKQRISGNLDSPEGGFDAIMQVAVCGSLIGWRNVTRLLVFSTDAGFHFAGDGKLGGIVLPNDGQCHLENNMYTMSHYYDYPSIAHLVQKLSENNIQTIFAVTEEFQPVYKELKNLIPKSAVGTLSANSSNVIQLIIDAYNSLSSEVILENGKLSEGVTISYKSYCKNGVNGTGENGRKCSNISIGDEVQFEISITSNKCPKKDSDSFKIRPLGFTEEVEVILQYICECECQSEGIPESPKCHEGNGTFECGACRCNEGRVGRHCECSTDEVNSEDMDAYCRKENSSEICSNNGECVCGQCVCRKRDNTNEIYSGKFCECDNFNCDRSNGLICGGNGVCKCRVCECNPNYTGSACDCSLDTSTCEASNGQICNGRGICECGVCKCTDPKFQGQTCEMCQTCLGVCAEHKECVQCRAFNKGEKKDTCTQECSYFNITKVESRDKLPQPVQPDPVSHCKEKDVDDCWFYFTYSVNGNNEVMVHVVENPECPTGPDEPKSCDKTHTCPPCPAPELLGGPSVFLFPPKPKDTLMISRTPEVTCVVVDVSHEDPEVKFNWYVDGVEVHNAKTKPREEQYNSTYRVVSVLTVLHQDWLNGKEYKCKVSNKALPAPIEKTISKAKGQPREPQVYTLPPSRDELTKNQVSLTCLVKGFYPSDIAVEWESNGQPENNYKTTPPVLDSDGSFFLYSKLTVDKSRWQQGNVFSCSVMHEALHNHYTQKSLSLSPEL
Description: The adhesion-inhibition activity of the compound of the present invention against VLA-4 may be examined by using an adhesion assay system in which the adhesion between VLA-4-expressing cells such as Ramos cells and Jurkat cells, and fibronectin or a fragment thereof, e.g., a peptide containing CS-1 sequence (Gly Pro Glu Ile Leu Asp Val Pro Ser Thr) (hereinafter referred to as "CS-1 peptide") immobilized on an immunoplate is measured. Alternatively, a binding assay system in which the binding of the VLA-4 protein to the fibronectin or a fragment thereof such as CS-1 peptide immobilized on an immunoplate is measured may be employed. In the present invention, the inhibition assay of the compound is preferably measured by a binding assay system which measures the binding between a chimeric protein of VLA-4 and immunoglobulin (VLA-4-IgG chimeric protein) and CS-1 peptide (Japanese patent application No. H9-234544), although the method of measuring the inhibition activity is not restricted to this method. The term "VLA-4-IgG chimeric protein" herein means the heterodimer composite molecule in which a chimeric protein between α4 of VLA-4 and immunoglobulin (hereinafter referred to as "VLAα4·IgG chimeric protein), and a chimeric protein between β1 of VLA-4 and immunoglobulin (hereinafter referred to as "VLAβ1·IgG chimeric protein) are associated. As the immunoglobulin, although heavy chain or light chain of IgG, IgM or the like may be employed, in the present invention, IgG1 heavy chain is used. When testing the inhibition activity of the compound, it is preferred to preliminarily mix the VLA-4-IgG chimeric protein and the test compound.
Effects of Compounds for Inhibition of Binding Between CS-1 Peptide and VLA-4-IgG
A conjugate between a peptide (Gys Leu His Gly Pro Glu Ile Leu Asp Val Pro Ser Thr) containing CS-1 sequence and rabbit IgG (Sigma) was prepared by the reported method (Humphries, M.J. et al. J. Biol.Chem., 262, 6886-6892 (1987)). The obtained conjugate was diluted with phosphate buffer (hereinafter referred to as "PBS(-)", NISSUI) and the resulting solution was placed in wells of a 96-well immunoplate (NUNC) in an amount of 100 µl/well, followed by leaving the solution to stand at 4°C for 16 hours to immobilize the conjugate.
Then each well was washed twice with PBS(-), and a PBS solution containing 1% BSA heat-treated at 80°C for 10 minutes was placed in each well in an amount of 300 µl/well. The immunoplate was left to stand at 4°C for 3 hours, and then the solution in each well was removed by aspiration.
After preliminarily allowing each compound to react with VLA-4-IgG chimeric protein (100 µl) at room temperature for 20 minutes, the resulting solution was allowed to react with CS-1 peptide in each well at 30°C for 3 hours. Thereafter, non-bound VLA-4-IgG chimeric protein was removed by aspiration and each well was washed twice with 0.1% BSA-containing TBS buffer (150 mM NaCl,25 mM Tris-HCI, 1 mM MnCl2 pH 7.4). To the bound VLA-4-IgG chimeric protein, biotin-labeled anti-human IgG antibody (Vector) as an primary antibody was added, and then avidin-labeled horse radish peroxidase (Sigma) as a secondary antibody was added, and the reaction was allowed to occur. After the reaction, o-phenylenediamine as a substrate was added to color the solution, and the absorbance at 490 nm was measured. From the absorbance, the binding-inhibition activity of each test compound was determined.

- IC50 [2]: 1800 nM
SMILES: CC(C)(C)CC(=O)N[C@@H](CSSC[C@H](NC(=O)CC(C)(C)C)C(=O)O)C(=O)O [Example 140, 3-((2(R)-carboxy-2(R)-(3,3-dimethylbutanoylamino)ethyl)disulfanyl)-2(R)-(3,3-dimethylbutanoylamino)propionic acid]
- increase in the respiratory resistance [1]: inhibits
